Reference: PubChem BioAssay (NCI)
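Five concentrations, 48 hours, 96-well plates. At the TGI there is no net growth.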

What was measured:
Experiment in all cases: NCI tumour cell line growth inhibition, 48 h
[1] = tested on: DLD-1 colon
[2] = tested on: DMS 273 small cell lung
[3] = tested on: KM20L2 colon
[4] = tested on: M19-MEL melanoma
[5] = tested on: P388 leukemia
[6] = tested on: P388/ADR leukemia
[7] = tested on: XF 498 CNS
[8] = tested on: LXFL 529 NSCLC

Structure (SMILES) | TGI [1] | TGI [2] | TGI [3] | TGI [4] | TGI [5] | TGI [6] | TGI [7] | TGI [8]
COc1cccc(-c2nc3c(C(=O)NCCN(C)C)cccc3[nH]2)c1 | 63.1 µM | 39.7 µM | 39 µM | 30.3 µM | 22.2 µM | 41.9 µM | – | –
COC(=O)C1=CC[C@@H]2C(C(=O)O)=CO[C@@H](OC3OC(CO)C(O)C(O)C3O)[C@H]12 (stereo partly specified) | > 189 µM | > 300 µM | > 300 µM | > 300 µM | > 300 µM | > 139 µM | > 300 µM | –
[C-]#[O+].[C-]#[O+].[Ir].[O-]c1cccc2cccnc12 | > 100 µM | > 100 µM | – | – | – | – | – | –
CC(O)C(O)C(N)CC=O (stereo unspecified) | > 500 µM | > 500 µM | > 500 µM | > 500 µM | > 500 µM | > 500 µM | > 414 µM | –
O=S(O)c1cc(Cl)cc(Cl)c1O | > 100 µM | – | – | > 100 µM | – | – | > 100 µM | > 100 µM
